According to publication PMC1310925, “Organotins Disrupt the 11β-Hydroxysteroid Dehydrogenase Type 2–Dependent Local Inactivation of Glucocorticoids” (Environmental Health Perspectives, 2005):

What was measured:
11β-HSD2 [1] = target: T1, 11β-HSD2 (Homo sapiens, UniProt P80365); experiment: 11β-HSD2 activity in intact stably transfected HEK-293 cells; format: cell-based; design: expressed in transfected cells; host or cells: HEK-293, stably transfected; conditions: for IC50: HEK-293 stably transfected, 40 nM cortisol, 2 hr; for 11β-HSD2 activity in intact cells, compound alone: concentrations 50% below their IC50 value
T1 sequence (P80365 1-405): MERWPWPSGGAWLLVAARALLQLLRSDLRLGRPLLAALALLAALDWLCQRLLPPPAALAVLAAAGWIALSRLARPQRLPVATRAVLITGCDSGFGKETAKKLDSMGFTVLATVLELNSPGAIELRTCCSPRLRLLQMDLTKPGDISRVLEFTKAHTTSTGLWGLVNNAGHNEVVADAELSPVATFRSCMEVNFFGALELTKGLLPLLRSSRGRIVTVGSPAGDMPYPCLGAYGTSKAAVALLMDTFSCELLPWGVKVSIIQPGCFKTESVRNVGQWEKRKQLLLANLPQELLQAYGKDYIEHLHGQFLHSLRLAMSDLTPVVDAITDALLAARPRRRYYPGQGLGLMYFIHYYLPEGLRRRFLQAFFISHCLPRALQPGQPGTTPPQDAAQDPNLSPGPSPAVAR

11β-HSD2 [2] = target: T1, 11β-HSD2; experiment: 11β-HSD2 activity in lysates of stably transfected HEK-293 cells (cortisol to cortisone); format: biochemical; design: expressed in transfected cells; host or cells: HEK-293, stably transfected; conditions: for Vmax of 11β-HSD2 in presence of inhibitor: control 2.14 ± 0.32
Method: Cells were rinsed 3 times with phosphate-buffered saline (PBS) and resuspended in 2 mL ice-cold buffer TS2 (100 mM NaCl, 1 mM EGTA, 1 mM EDTA, 1 mM MgCl2, 250 mM sucrose, 20 mM Tris-HCl, pH 7.4). Aliquots of the cell suspension were frozen at −20°C, retaining full enzymatic activity for at least 3 months. For determinationof 11β-HSD2 activity, aliquots were thawed, sonicated, and diluted 1:12 in buffer TS2 (4°C). We carried out reactions in a final volume of 20 μL containing 10 nCi [1,2,6,7-^3H]-cortisol, 400-μM NAD^+, and different concentrations of unlabeled cortisol. […] Incubations were for 10 min at 37°C.

17β-HSD1 = target: T2, 17β-HSD1 (Homo sapiens, UniProt P14061); experiment: 17β-HSD1 activity in cell lysates (estrone to estradiol); format: biochemical; conditions: for inhibition of 17β-HSD1: lysate; for IC50: lysates of transfected HEK-293 cells, 200 nM estrone, NADPH, read-out: IC50 17β-HSD1, cell lysate
T2 construct: expressed in transfected cells; host or cells: HEK-293, calcium-phosphate transfection, lysate
T2 sequence (P14061 1-328): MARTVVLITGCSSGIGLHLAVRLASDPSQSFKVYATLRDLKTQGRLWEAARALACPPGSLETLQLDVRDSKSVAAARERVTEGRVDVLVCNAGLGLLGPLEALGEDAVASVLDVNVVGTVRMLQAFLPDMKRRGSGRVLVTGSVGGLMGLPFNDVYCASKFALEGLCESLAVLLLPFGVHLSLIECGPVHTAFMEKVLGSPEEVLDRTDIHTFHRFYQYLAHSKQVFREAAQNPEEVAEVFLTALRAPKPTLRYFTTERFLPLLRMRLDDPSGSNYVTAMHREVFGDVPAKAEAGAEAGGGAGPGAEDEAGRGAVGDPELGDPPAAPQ
Method: (§1) For determination of 11β-HSD1, 17β-HSD1, and 17β-HSD2 activity, HEK-293 cells transfected by the calcium-phosphate precipitation method were harvested 48 hr later, washed with PBS, and centrifuged for 3 min at 150 × g. Supernatants were removed, cell pellets quick-frozen in a dry ice ethanol bath, and stored at −70°C. For assaying 11β-HSD1, we dissolved pellets in TS2 buffer; for 17β-HSD1 or 17β-HSD2, we used a buffer containing 50 mM potassium phosphate, 20% glycerol, and 1 mM EDTA. We measured 11β-HSD1 oxoreductase activity as described recently ([Atanasov et al. 2004]), using radiolabeled cortisone as substrate. 17β-HSD1 and 17β-HSD2 activities were measured in the presence of radiolabeled estrone or estradiol and unlabeled steroid at final concentrations of 200 nM and 500 μM NADPH or NAD^+, respectively.

11β-HSD1 = target: T3, 11β-HSD1 (Homo sapiens, UniProt P28845); experiment: 11β-HSD1 oxoreductase activity in cell lysates (cortisone to cortisol); format: biochemical; conditions: for inhibition of 11β-HSD1-dependent conversion of cortisone to cortisol: concentrations up to 200 μM, lysate; for IC50: lysates of transfected HEK-293 cells, cortisone as substrate, read-out: IC50 11β-HSD1, cell lysate
T3 construct: expressed in transfected cells; host or cells: HEK-293, calcium-phosphate transfection, lysate
Method: as §1

[3] = ref McVey and Cooke 2003; cited from earlier work
17β-HSD2 = target: T4, 17β-HSD2 (Homo sapiens, UniProt P37059); experiment: 17β-HSD2 activity in cell lysates (estradiol to estrone); format: biochemical; conditions: for IC50: lysates of transfected HEK-293 cells, 200 nM estradiol, NAD+, read-out: IC50 17β-HSD2, cell lysate
T4 construct: expressed in transfected cells; host or cells: HEK-293, calcium-phosphate transfection, lysate
T4 sequence (P37059 1-387): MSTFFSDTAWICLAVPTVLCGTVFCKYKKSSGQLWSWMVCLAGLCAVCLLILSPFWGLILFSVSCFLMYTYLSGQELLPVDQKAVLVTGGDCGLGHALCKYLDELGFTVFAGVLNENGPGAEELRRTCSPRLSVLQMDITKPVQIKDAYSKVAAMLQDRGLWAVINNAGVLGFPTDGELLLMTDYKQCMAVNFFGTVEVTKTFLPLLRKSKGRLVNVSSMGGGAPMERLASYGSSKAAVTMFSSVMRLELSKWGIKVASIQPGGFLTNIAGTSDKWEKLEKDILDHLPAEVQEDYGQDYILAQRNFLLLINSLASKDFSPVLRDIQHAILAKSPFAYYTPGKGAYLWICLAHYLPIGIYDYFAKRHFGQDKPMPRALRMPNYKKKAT
Method: as §1

11β-HSD2 Cys^48Ser = 11β-HSD2 Cys^48Ser (Homo sapiens, UniProt P80365, C48S); conditions: read-out: TBT IC50 ± SD, Cys^48Ser; mutant Cys^48Ser, lysate
Method: (§2) Cells were rinsed 3 times with phosphate-buffered saline (PBS) and resuspended in 2 mL ice-cold buffer TS2 (100 mM NaCl, 1 mM EGTA, 1 mM EDTA, 1 mM MgCl2, 250 mM sucrose, 20 mM Tris-HCl, pH 7.4). […] For determinationof 11β-HSD2 activity, aliquots were thawed, sonicated, and diluted 1:12 in buffer TS2 (4°C). We carried out reactions in a final volume of 20 μL containing 10 nCi [1,2,6,7-^3H]-cortisol, 400-μM NAD^+, and different concentrations of unlabeled cortisol. […] Incubations were for 10 min at 37°C.
(§3) All constructs were verified by sequencing and recloned into pcDNA3 expression vector. Wild-type and mutant enzymes were expressed in HEK-293 cells, lysates were prepared, and proteins were separated by sodium dodecyl sulfate (SDS) gel electrophoresis. Proteins were transferred to nitrocellulose, and expression levels of 11β-HSD2 constructs were detected using mouse monoclonal antibody M2 raised against the FLAG epitope and visualized with a horseradish peroxidase conjugated anti-mouse antibody and enhanced chemiluminescence Western kit (Pierce, Rockford, IL, USA). After detection of 11β-HSD2 constructs, nitrocellulose membranes were stripped and incubated with rabbit polyclonal anti-actin IgG (Santa Cruz Biotechnology Inc., Santa Cruz, CA, USA) and horseradish peroxidase–conjugated goat anti-rabbit IgG to adjust for the amount of proteins loaded on the gel. The expression of mutant relative to wild-type enzyme was adjusted for calculation of kinetic parameters.

11β-HSD2 Cys^127Ser = 11β-HSD2 Cys^127Ser (Homo sapiens, UniProt P80365, C127S); conditions: read-out: TBT IC50 ± SD, Cys^127Ser; mutant Cys^127Ser, lysate
Method: as §2, §3

11β-HSD2 Cys^248Ser = 11β-HSD2 Cys^248Ser (Homo sapiens, UniProt P80365, C248S); conditions: read-out: TBT IC50 ± SD, Cys^248Ser; mutant Cys^248Ser, lysate
Method: as §2, §3

11β-HSD2 Cys^371Ser = 11β-HSD2 Cys^371Ser (Homo sapiens, UniProt P80365, C371S); conditions: read-out: TBT IC50 ± SD, Cys^371Ser; mutant Cys^371Ser, lysate
Method: as §2, §3

11β-HSD2 Cys^128Ser = 11β-HSD2 Cys^128Ser (Homo sapiens, UniProt P80365, C128S); conditions: read-out: TBT IC50 ± SD, Cys^128Ser; mutant Cys^128Ser, lysate
Method: as §2, §3

11β-HSD2 Cys^188Ser = 11β-HSD2 Cys^188Ser (Homo sapiens, UniProt P80365, C188S); conditions: read-out: TBT IC50 ± SD, Cys^188Ser; mutant Cys^188Ser, lysate
Method: as §2, §3

11β-HSD2 Cys^264Ser = 11β-HSD2 Cys^264Ser (Homo sapiens, UniProt P80365, C264S); conditions: lysate
Method: as §2, §3

11β-HSD2 [4] = target: T1, 11β-HSD2; conditions: endogenous enzyme, intact cells
Method: (§4) SW-620 (human colorectal adenocarcinoma) cells and JEG-3 (human choriocarcinoma) cells were cultured according to the recommendations of the supplier (American Type Culture Collection, Manassas, VA, USA).
(§5) HEK-293 cells stably transfected with 11β-HSD2 (25,000 cells per well) were seeded 24 hr prior to the assay in poly-D-lysine coated 96-well Biocoat plates (Becton Dickinson, Basel, Switzerland). The medium was carefully removed, followed by the addition of 30 μL fresh medium, 10 μL medium containing various concentrations of organotins, and 10 μL radiolabeled cortisol. The reaction volume was 50 μL, with a final cortisol concentration of 40 nM. The cells were incubated for 2 hr at 37°C under 5% CO2. We stopped reactions by adding an excess of unlabeled cortisone and cortisol in methanol, and separated steroids using thin-layer chromatography, followed by scintillation counting. 11β-HSD2 activity in JEG-3, SW-620, and RCCD-2 cells was measured similarly by adjusting the cell density and reaction time to obtain a maximal conversion of cortisol between 15 and 25%.

11β-HSD2 [5] = target: 11β-HSD2 (Rattus norvegicus, UniProt P50233)
Method: as §4, §5

[6] = 40 nM cortisol, 400 μM NAD+, 10 min 37°C, read-out: IC50 11β-HSD2, cell lysate

T3 sequence (P28845 whole entry): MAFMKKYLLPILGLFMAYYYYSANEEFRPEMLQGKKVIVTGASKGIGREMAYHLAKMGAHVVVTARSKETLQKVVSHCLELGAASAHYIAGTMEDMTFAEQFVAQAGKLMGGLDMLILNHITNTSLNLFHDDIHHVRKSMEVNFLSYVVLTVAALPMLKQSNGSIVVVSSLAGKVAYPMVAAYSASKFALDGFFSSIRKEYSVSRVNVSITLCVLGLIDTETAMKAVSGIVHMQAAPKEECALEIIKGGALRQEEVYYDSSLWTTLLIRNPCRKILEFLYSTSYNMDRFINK
Sequence of 11β-HSD2 (Rattus norvegicus, UniProt P50233) (P50233 whole entry): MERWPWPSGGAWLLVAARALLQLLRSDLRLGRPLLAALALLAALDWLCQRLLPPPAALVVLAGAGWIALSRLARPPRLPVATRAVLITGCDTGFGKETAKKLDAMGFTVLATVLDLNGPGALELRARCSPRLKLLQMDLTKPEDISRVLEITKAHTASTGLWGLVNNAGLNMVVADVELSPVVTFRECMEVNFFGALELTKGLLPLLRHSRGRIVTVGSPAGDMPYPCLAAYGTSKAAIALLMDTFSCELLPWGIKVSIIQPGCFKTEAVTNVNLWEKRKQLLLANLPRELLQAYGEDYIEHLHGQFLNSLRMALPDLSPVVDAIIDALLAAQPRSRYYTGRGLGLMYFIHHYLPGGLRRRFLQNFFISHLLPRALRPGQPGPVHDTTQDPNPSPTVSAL
Sequence of 11β-HSD2 Cys^264Ser (P80365 whole entry C264S): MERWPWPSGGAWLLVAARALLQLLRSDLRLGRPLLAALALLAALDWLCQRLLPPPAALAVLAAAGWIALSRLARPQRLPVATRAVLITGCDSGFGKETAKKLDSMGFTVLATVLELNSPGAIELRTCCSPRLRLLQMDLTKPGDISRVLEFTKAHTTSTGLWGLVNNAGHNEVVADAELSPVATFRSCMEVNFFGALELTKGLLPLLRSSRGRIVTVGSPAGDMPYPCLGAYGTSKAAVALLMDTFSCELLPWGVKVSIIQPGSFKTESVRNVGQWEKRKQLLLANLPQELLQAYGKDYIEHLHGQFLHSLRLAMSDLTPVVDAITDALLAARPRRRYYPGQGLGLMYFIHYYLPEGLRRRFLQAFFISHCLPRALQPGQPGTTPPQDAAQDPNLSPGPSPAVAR
Sequence of 11β-HSD2 Cys^48Ser (P80365 whole entry C48S): as the sequence (P80365 whole entry C264S) above, with C48S, S264C counted along it
Sequence of 11β-HSD2 Cys^128Ser (P80365 whole entry C128S): as the sequence (P80365 whole entry C264S) above, with C128S, S264C counted along it
Sequence of 11β-HSD2 Cys^127Ser (P80365 whole entry C127S): as the sequence (P80365 whole entry C264S) above, with C127S, S264C counted along it
Sequence of 11β-HSD2 Cys^248Ser (P80365 whole entry C248S): as the sequence (P80365 whole entry C264S) above, with C248S, S264C counted along it
Sequence of 11β-HSD2 Cys^371Ser (P80365 whole entry C371S): as the sequence (P80365 whole entry C264S) above, with S264C, C371S counted along it
Sequence of 11β-HSD2 Cys^188Ser (P80365 whole entry C188S): as the sequence (P80365 whole entry C264S) above, with C188S, S264C counted along it

CCC[CH2][Sn][CH2]CCC [DBT, dibutyltin]
IC50 (11β-HSD2 [1]): 5.03 ± 0.7 µM | 11β-HSD2 activity in intact cells, compound alone (11β-HSD2 [1]): reduced 11β-HSD2 activity only slightly | IC50 (11β-HSD2 [2]; [6]): 1.95 ± 0.27 µM

CCC[CH2][Sn]([CH2]CCC)[CH2]CCC [TBT, tributyltin]
inhibition of 17β-HSD1 (17β-HSD1): neither TBT nor TPT inhibited | IC50 (17β-HSD1): > 200 µM | inhibition of 11β-HSD1-dependent conversion of cortisone to cortisol (11β-HSD1): did not inhibit | IC50 (11β-HSD1): > 200 µM | toxic daily intake [3]: 0.25 μg/kg body weight | IC50 (11β-HSD2 [1]): 1.52 ± 0.43 µM | 11β-HSD2 activity in intact cells, compound alone (11β-HSD2 [1]): reduced 11β-HSD2 activity only slightly | IC50 (17β-HSD2): > 200 µM | IC50 (11β-HSD2 Cys^48Ser): 2.11 ± 0.33 µM | IC50 (11β-HSD2 Cys^127Ser): 2.23 ± 0.33 µM | IC50 (11β-HSD2 Cys^248Ser): 2.07 ± 0.47 µM | IC50 (11β-HSD2 Cys^371Ser): 2.17 ± 0.5 µM | IC50 (11β-HSD2 Cys^128Ser): 1.87 ± 0.53 µM | IC50 (11β-HSD2 Cys^188Ser): 1.95 ± 0.38 µM | increase in IC50 with Cys^264Ser versus wild-type (11β-HSD2 Cys^264Ser): 2 fold | IC50 (11β-HSD2 Cys^264Ser; read-out: TBT IC50 ± SD, Cys^264Ser, mutant Cys^264Ser): 4.2 ± 0.44 µM | inhibition of 11β-HSD2 in SW-620 cells compared with HEK-293 cells (11β-HSD2 [4]; colon-derived): highly similar to that observed in HEK-293 cells | inhibition of 11β-HSD2 in JEG-3 cells compared with HEK-293 cells (11β-HSD2 [4]; placenta-derived): highly similar to that observed in HEK-293 cells | stronger inhibition in RCCD-2 cells than in HEK-293 cells (11β-HSD2 [5]; intact cells): approximately 2 fold | IC50 (11β-HSD2 [5]; read-out: IC50 11β-HSD2 in intact RCCD-2 cells, endogenous enzyme, rat renal cortical collecting duct cells): 0.83 ± 0.23 µM | IC50 (11β-HSD2 [2]; [6]): 1.9 ± 0.66 µM | increase of apparent Km (11β-HSD2 [2]; 2 μM TBT versus control): 2 fold | change of inhibitory effect upon preincubation (11β-HSD2 [2]; 2 μM TBT, preincubation 5 or 10 min, lysate): the changes did not reach significance | Vmax of 11β-HSD2 in presence of inhibitor (11β-HSD2 [2]; 2 μM TBT): 1.66 ± 0.40 nmol/h/mg | increase of apparent Km (11β-HSD2 [2]; 3 μM TBT versus control): 3 fold | Vmax of 11β-HSD2 in presence of inhibitor (11β-HSD2 [2]; 3 μM TBT): 1.48 ± 0.48 nmol/h/mg | effect of dilution of enzyme-inhibitor complex on relative inhibition (11β-HSD2 [2]; 2-fold and 4-fold dilution of the EI complex): proportional decrease of the relative inhibitory effect | IC50 (11β-HSD2 [2]; Table 2, wild-type enzyme, lysate, read-out: TBT IC50 ± SD, wild-type 11β-HSD2): 1.9 ± 0.46 µM | mode of inhibition of 11β-HSD2 (11β-HSD2 [2]; from change of Km and Vmax with TBT): mixed-competitive mode of inhibition

c1cc[c]([Sn]([c]2ccccc2)[c]2ccccc2)cc1 [TPT, triphenyltin]
inhibition of 17β-HSD1 (17β-HSD1): neither TBT nor TPT inhibited | IC50 (17β-HSD1): > 200 µM | inhibition of 11β-HSD1-dependent conversion of cortisone to cortisol (11β-HSD1): did not inhibit | IC50 (11β-HSD1): > 200 µM | IC50 (11β-HSD2 [1]): 0.99 ± 0.24 µM | 11β-HSD2 activity in intact cells, compound alone (11β-HSD2 [1]): reduced 11β-HSD2 activity only slightly | IC50 for 17β-HSD2 relative to IC50 for 11β-HSD2 (17β-HSD2; lysates): 6 fold | IC50 (17β-HSD2): 19 ± 3 µM | IC50 (11β-HSD2 [2]; [6]): 3.19 ± 0.73 µM
